Assay results taken from ChEMBL document CHEMBL3507680, “University of Dundee, Gates Library screen for HepG2 cell viability”.

Assay: Human HepG2 cell viability assay in 384 well format
Assay type: toxicity, cell-based
Set-up: dose 125 nL, time 70.5 hour; cytotoxicity at 70.5 h: concentration not given beside the values
Conditions: HepG2 cells, read-out: Inhibition

Row | Compound | cytotoxicity at 70.5 h
1 | Cc1ccc(C(=O)N2CCC3(CC2)CC(c2ccccc2)C(=O)N3)o1 (stereo not drawn) | -5.53%
2 | c1ccc(CN2CCOC3(CCCN(c4nccs4)C3)C2)cc1 (stereo not drawn) | -7.62%
3 | Cn1cc(CN2CCN3C[C@H](Oc4cccnc4)C[C@H]3C2)cn1 | -1.85%
4 | Cn1cccc1C(=O)N1CC[C@H]2[C@H](CO[C@H]2CNS(C)(=O)=O)C1 | -4.35%
5 | Cc1oncc1C(=O)N1CC[C@H]2[C@H](CO[C@@H]2CNS(C)(=O)=O)C1 | -5.2%
6 | CS(=O)(=O)NC[C@@H]1OC[C@H]2CN(C(=O)c3ccccc3)CC[C@H]21 | 15.9%
7 | O=C1CCCN1Cc1ncn2c1CN(S(=O)(=O)c1cccs1)CCC2 | -1.28%
8 | CN(C)CCN1CCOCC2(CCCN(C(=O)c3cccc(O)c3)C2)C1 (stereo not drawn) | -2.03%
9 | Cc1occc1C(=O)N1CC[C@@H]2[C@@H](CO[C@H]2CNS(C)(=O)=O)C1 | -1.5%
10 | O=C(NC1CC1)[C@@H]1CCO[C@@H]2CCN(C3CCCC3)C[C@H]21 | -0.698%
11 | Cc1nc([C@H]2C[C@@H]3CCN(Cc4cnn(C)c4)C[C@H]3O2)sc1C | -1.71%
12 | COCCN1CCC2(CCCN(C(=O)c3ccoc3C)C2)C1=O (stereo not drawn) | -1.73%
13 | CC(C)N(C)C(=O)C1=NOC2(CCN(C(=O)c3ccncc3)C2)C1 (stereo not drawn) | -8.56%
14 | Cc1noc([C@H]2C[C@H]3OCC[C@H]3N(S(=O)(=O)C3CC3)C2)n1 | -11.6%
15 | c1coc(CN2Cc3nccn3CC(Cn3cncn3)C2)c1 (stereo not drawn) | 1.12%
16 | COC[C@@]12CCO[C@@H]1CCN(C(=O)COc1ccccc1OC)C2 | -11.3%
17 | CCN1CC2(CC1=O)CN(C(=O)c1ccco1)CCN(C(=O)N(C)C)C2 (stereo not drawn) | -5.37%
18 | Cc1cccc(CN2C[C@@H]3COC[C@]3(COc3ccc(C#N)cn3)C2)n1 | -0.115%
19 | CCS(=O)(=O)N1CCC(c2nc3ccc(-c4ccccc4)cn3n2)CC1 | -5.21%
20 | Cc1nc(CN2C(=O)C[C@@H]3[C@@H]2CCN3C(=O)C2CCOCC2)cs1 | -8.18%
21 | c1cncc(OCC2CN(Cc3ccco3)Cc3nccn3C2)c1 (stereo not drawn) | 21.3%
22 | CCOCC(=O)N1C[C@@H]2COC[C@H](c3nc(C)no3)[C@@H]2C1 | -2.34%
23 | Cc1noc([C@@H]2CC[C@@H]3[C@@H](CCN3S(=O)(=O)C3CC3)O2)n1 | 2.67%
24 | CN(C)C(=O)CO[C@@H]1CC[C@H]2[C@H]1OCCN2C(=O)C1CCOCC1 | -3.79%
25 | CCn1nnc2c1C(COC)CN(C(=O)COc1ccccc1)C2 (stereo not drawn) | 0.105%
26 | COCC1c2c(cnn2C)CCN1Cc1ccoc1 (stereo not drawn) | -3.89%

Row | Compound | cytotoxicity at 70.5 h
27 | C[C@H]1C[C@@H]2CCN(C(=O)c3ccncn3)C[C@H]2O1 | -0.838%
28 | COCC1COCCC12CCN(C(=O)CCOc1ccccc1)CC2 (stereo not drawn) | -2.28%
29 | Cn1cc(-c2cnc(N3CCCC3)nc2)cc1C(=O)O | 1.36%
30 | CCO[C@@H]1CC[C@H]2[C@H]1OCCN2C(=O)C1CCOCC1 | -2.08%
31 | CC(C)NC(=O)C1CN(C(=O)c2ccc(F)cc2)CC12CCOCC2 (stereo not drawn) | 23.6%
32 | Cc1nc(N2CCOCC2)nc2c1CCN(C(=O)NC1CCCC1)CC2 | 20.6%
33 | CCN1C[C@H]2CCN(C(C)=O)CC[C@H]2S1(=O)=O | -14.5%
34 | O=c1cc(Cn2ccnc2)nc2n1CCCN(Cc1ccsc1)C2 | -19.5%
35 | CC1CCc2nn(CCNC(=O)Cc3cccs3)c(=O)cc2C1 (stereo not drawn) | -2.17%
36 | CC1CCc2nn(CCNC(=O)c3ccco3)c(=O)cc2C1 (stereo not drawn) | -5.13%
37 | CNC(=O)C1(CCCc2ccccn2)CN(Cc2coc(C)n2)C1 | -5.7%
38 | CN1CCC(Cc2cnc3ccccc3c2)C1 (stereo not drawn) | 1.19%
39 | CNC(=O)c1c[nH]nc1C1CCCN1c1ncccn1 (stereo not drawn) | -4.93%
40 | Cc1cc2nccc(C3CCCN(C(=O)c4cnccn4)C3)n2n1 (stereo not drawn) | 0.174%
41 | CN(C)C(=O)Cn1c(C2CC2)c(CN2CCOCC2)c2cccnc21 | -1.8%
42 | CSc1ncc(C(=O)N(C)C(C)Cc2ccccn2)cn1 (stereo not drawn) | -5.33%
43 | Cc1cc(C)n(CC(=O)N2CCC(c3cc4cccnc4[nH]3)CC2)n1 | 29.7%
44 | Cc1cc(C)n(CC(=O)N2CCCC2c2cc3cccnc3[nH]2)n1 (stereo not drawn) | 2.7%
45 | CNc1ncc(CN2CCC(CCc3ccccc3)CC2)cn1 | -1.31%
46 | COc1cc2c(cc1CN1CCc3sccc3C1C)OCO2 (stereo not drawn) | 2.98%
47 | Cc1cnc2[nH]c(C(F)(F)F)c(CN3CCCC(CO)C3)c2c1 (stereo not drawn) | 3.56%
48 | COCC(=O)N1CCC(c2cc(-c3ccc(OC)cc3)n[nH]2)C1 (stereo not drawn) | 10.4%
49 | Cc1ccc(CN2CCc3c(nc4cc(C5CC5)nn4c3O)C2)s1 | 18.3%
50 | COCC(=O)N1CCC(c2cc(-c3ccc(C)cc3)n[nH]2)C1 (stereo not drawn) | 14.4%
51 | CC(C)NC(=O)N1CCc2c(CNc3ncccn3)cncc2C1 | -3.35%
52 | CC(=O)NC1CCN(c2cnc(C3CCNCC3)cn2)CC1 | -3.96%

Row | Compound | cytotoxicity at 70.5 h
53 | CC(=O)N1CCN(c2cncc(C3CCNCC3)n2)CC1 | 34.1%
54 | CN(C)C(=O)Cn1c(C2CC2)c(CN2CCC(O)CC2)c2cccnc21 | 12.5%
55 | O=C(N[C@H]1CN[C@H]2CCCO[C@H]21)c1cccnc1 | -10.1%
56 | Cc1noc(C)c1CN1CCOC2(CCCN(c3ncccn3)C2)C1 (stereo not drawn) | -5.7%
57 | CC(=O)N1CC(=O)N(c2ccsc2)CC12CCN(Cc1ccccn1)C2 (stereo not drawn) | -6.8%
58 | Cc1noc(C)c1CN1C[C@@H]2CCCO[C@@H]2[C@H](NS(C)(=O)=O)C1 | -9.8%
59 | O=C(c1ccoc1)N1CCO[C@]2(CCC[C@@H]2COCc2cccnc2)C1 | -1.92%
60 | COCC1CC2(CCN(Cc3nccn3C)CC2)CN1c1ncccn1 (stereo not drawn) | -0.457%
61 | CN1CCOCC2(CCCN(C(=O)c3cn(C)cn3)C2)C1 (stereo not drawn) | 0.515%
62 | COC[C@H]1CNC(=O)[C@@H]2CCN(Cc3ccc(F)cc3)CC[C@H]12 | -1.94%
63 | COCC1CN(Cc2ccc(F)cc2)Cc2nnn(CC3CC3)c21 (stereo not drawn) | 0.526%
64 | CN(C)C(=O)CO[C@H]1CN(Cc2cccc(F)c2)[C@@H]2CCCO[C@H]12 | -0.497%
65 | COCCN1CC[C@@H]2O[C@@H](COCC(=O)N3CCCC3)CC[C@@H]21 | -3.26%
66 | Cc1ccc(CC(=O)N2Cc3nccn3CC(CN(C)C)C2)cc1 (stereo not drawn) | -13.3%
67 | c1ccc(N2CCCC3(COCCN(c4nccs4)C3)C2)nc1 (stereo not drawn) | -0.38%
68 | CC1N(CC2CC2)C(=O)COC12CCN(Cc1nccs1)CC2 (stereo not drawn) | -8.15%
69 | Cc1noc([C@@H]2C[C@H]3OCC[C@H]3N(S(=O)(=O)c3cccnc3)C2)n1 | -8.05%
70 | c1csc(CN2Cc3nccn3CC(Cn3cncn3)C2)n1 (stereo not drawn) | -7.09%
71 | CCN1CC2(CC1=O)CN(Cc1ccco1)CCN(C(=O)N(C)C)C2 (stereo not drawn) | -8.06%
72 | O=C(Cc1cccs1)N1C[C@@H]2OCCN(CC3CCCC3)[C@@H]2C1 | -3.16%
73 | CCc1ccc(CN2CC[C@H]3C[C@H](c4nnc(C)[nH]4)O[C@@H]3C2)o1 | -1.93%
74 | Cn1cc(C(=O)NC[C@@H]2OC[C@H]3CN(Cc4ccco4)CC[C@H]32)cn1 | -7.09%
75 | COCCO[C@@H]1CCN(C(=O)c2ccc(C)o2)[C@@H]1Cc1cccnc1 | 4.05%
76 | Cc1noc([C@@H]2CC[C@@H]3[C@@H](CCN3S(=O)(=O)c3cccnc3)O2)n1 | -4.36%
77 | CC(C)NC(=O)N1CCN(CC2CC2)CC2(CC(=O)N(C)C2)C1 (stereo not drawn) | -4.82%
78 | Fc1cccc(N2C[C@H]3CCN(c4cccnc4)C[C@H]3C2)c1 | -5.68%

Row | Compound | cytotoxicity at 70.5 h
79 | CCCS(=O)(=O)N1CCC2(CN(c3ccsc3)C(=O)CN2C)C1 (stereo not drawn) | -3.38%
80 | O=C(NCc1cccs1)[C@H]1CC[C@@H]2[C@@H](CCN2c2ncccn2)O1 | 2.87%
81 | CC1=N[C@@]2(CC[C@@H]3CN(CC(=O)N(C)C)C[C@@H]32)C(=O)N1CC(C)C | 52.3%
82 | CCC1=N[C@@]2(CC[C@@H]3CN(CC(=O)N(C)C)C[C@@H]32)C(=O)N1CC1CC1 | -13.2%
83 | CC(=O)N1C[C@H]2CCCC(N3CCN(c4ncccn4)CC3)[C@H]2C1 (stereo partly drawn) | 11.4%
84 | CN(C)CCN1CCOCC2(CCCN(C(=O)c3cccn3C)C2)C1 (stereo not drawn) | 0.0252%
85 | CN(C)CCN1CCOCC2(CCCN(C(=O)c3ccccc3)C2)C1 (stereo not drawn) | -2.82%
86 | Cc1ccc(O[C@@H]2C[C@H]3CN(Cc4nccn4C)CCN3C2)cc1 | -4.55%
87 | O=C(CC1CC1)N[C@@H]1CN(Cc2cccnc2)C[C@@H]2CCCO[C@@H]21 | -4.07%
88 | COCC1CC2(CCN(CC3CC3)CC2)CN1c1ncccn1 (stereo not drawn) | -3.59%
89 | c1cc2nc(C3CCN(CC4CC4)CC3)nn2cc1N1CCCC1 | -4.49%
90 | CN(C)Cc1cnc2n1CCN(Cc1ccsc1)CC2 | -2.43%
91 | Cc1cccc(COC[C@@H]2CC[C@H]3[C@H](CCN3Cc3ccco3)O2)n1 | -6.18%
92 | Cc1nnc(N2CCCC3(CN(Cc4ccc(C)s4)CCO3)C2)o1 (stereo not drawn) | -8.9%
93 | c1cncc(OC[C@]23COC[C@H]2CN(Cc2cccs2)C3)c1 | -7.3%
94 | COCC1c2c(cnn2CC2CCOCC2)CCN1Cc1ccoc1 (stereo not drawn) | 3.09%
95 | COc1ccc(CN2C[C@@H]3COC[C@]3(COc3cccnc3)C2)cc1 | -7.11%
96 | CCc1ncnc2c1CCN(Cc1ccccn1)CC2 | 28%
97 | COC[C@@H]1CCC[C@]12CN(Cc1cccc(C)n1)CCO2 | -14.3%
98 | Cn1ncc2c1CN(Cc1cccnc1)CC2COCC1CC1 (stereo not drawn) | -2.46%
99 | CN1CC(=O)N(c2ccccc2)CC12CCN(Cc1cccnc1)C2 (stereo not drawn) | -11.3%
100 | Cc1ccc(CN2CCC(O)(Cn3nc(-c4cccs4)oc3=O)CC2)o1 | -1.27%
101 | CN(C)CCN(Cc1ccccn1)Cc1ccnn1C1CCCCO1 (stereo not drawn) | -2.87%
102 | Fc1ccc(CN[C@@H]2COC[C@H]2c2ccc(F)cc2)cc1 | 0.602%
103 | Cc1ccc(CN(CCN(C)C)Cc2ccnn2C2CCCCO2)o1 (stereo not drawn) | -3.26%
